We go through 24 molecules from US20190375708A1 (VenatoRx Pharmaceuticals, Inc., priority 2018, published 2019).

The test system of series [1] is HBV replication in HepAD38 cells. The experiment in a line: Anti-HBV replication assay in HepAD38 cells (QPCR of extracellular HBV DNA). The series is classed as cell-based, HBV (genotype D, serotype ayw). Particulars: Hepatitis B virus, 168 h, 7 days incubation, extracellular HBV DNA by QPCR, read-out: Anti-HBV EC50. In outline: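 EC50 values reflect 50% reduction of extracellular HBV DNA, measured by QPCR after 7-day treatment of tetracycline-deprived HepAD38 cells with compound […].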

The nature of series [2]: In vitro cytotoxicity assay (MTT cell viability) in HepG2 cells. Format: cell-based, human. Particulars: human. In outline:
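HepG2 seeded overnight, then 7-day compound exposure (30 μM–1.0 nM, half-log steps), 37 °C. MTT 3-4 h, DMSO solubilization, A492. % of vehicle → CC50, 4-PL fit.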

On to `Cc1c(C(=O)Nc2cccc(Cl)c2)c(C)n(C)c1C(=O)C(=O)N[C@H](C)C(F)(F)F` [Example 603, (R)-N-(3-chlorophenyl)-1,2,4-trimethyl-5-(2-oxo-2-((1,1,1-trifluoropropan-2-yl)amino)acetyl)-1H-pyrrole-3-carboxamide], for which the concentration giving a half-maximal response (EC50) (commonly the concentration at which the effect is half-maximal) in series [1] is less than 0.05 µM. In addition, the CC50 (in general, the concentration at which the toxic effect on the cells reaches its halfway point) at 7 days in series [2] is 5 to 30 µM.

For `Cc1c(C(=O)Nc2cccc(Cl)c2)c(C)n(C)c1C(=O)C(=O)NC1(C(F)(F)F)CCOCC1` [Example 604, N-(3-chlorophenyl)-1,2,4-trimethyl-5-(3-oxo-2-((4-(trifluoromethyl)tetrahydro-2H-pyran-4-yl)amino)acetyl)-1H-pyrrole-3-carboxamide], in series [1], the concentration giving a half-maximal response (EC50) was less than 0.05 µM. Also, the cytotoxic concentration (CC50) at 7 days in series [2] lay in the range of 5 to 30 µM.

For `Cc1cc(NC(=O)c2c(C)c(C(=O)C(=O)NC3(C(=O)N[C@H](C)C(F)(F)F)CCOCC3)n(C)c2C)ccc1F` [Example 605, (R)-N-(4-fluoro-3-methylphenyl)-1,2,4-trimethyl-5-(2-oxo-2-((4-((1,1,1-trifluoropropan-2-yl)carbamoyl)tetrahydro-2H-pyran-4-yl)amino)acetyl)-1H-pyrrole-3-carboxamide], the EC50 in series [1] is less than 0.05 µM. In series [2], this molecule displayed a half-maximal cytotoxic concentration (CC50) at 7 days of more than 30 µM.

`Cc1nc2c(s1)C(NC(=O)C(=O)c1c(C)c(C(=O)Nc3cnc(F)c(C)c3)c(C)n1C)CCC2` (stereo not drawn) [Example 606, N-(6-fluoro-5-methylpyridin-3-yl)-1,2,4-trimethyl-5-(2-((2-methyl-4,5,6,7-tetrahydrobenzo[d]thiazol-7-yl)amino)-2-oxoacetyl)-1H-pyrrole-3-carboxamide]: the EC50 in series [1] is less than 0.05 µM. The molecule further displayed a half-maximal cytotoxic concentration (CC50) at 7 days in series [2] of more than 30 µM.

With `Cc1nc2c(s1)C(NC(=O)C(=O)c1c(C)c(C(=O)Nc3ccnc(F)c3)c(C)n1C)CCC2` (stereo not drawn) [Example 607, N-(2-fluoropyridin-4-yl)-1,2,4-trimethyl-5-(2-((2-methyl-4,5,6,7-tetrahydrobenzo[d]thiazol-7-yl)amino)-2-oxoacetyl)-1H-pyrrole-3-carboxamide], the EC50 in series [1] is less than 0.05 µM. Moreover, the CC50 at 7 days in series [2] is more than 30 µM.

Take `Cc1cc(NC(=O)c2c(C)c(C(=O)C(=O)NC3COCC(O)C3)n(C)c2C)ccc1F` (stereo not drawn) [Example 608, N-(4-fluoro-3-methylphenyl)-5-(2-((5-hydroxytetrahydro-2H-pyran-3-yl)amino)-2-oxoacetyl)-1,2,4-trimethyl-1H-pyrrole-3-carboxamide]: the 50% effective concentration (EC50) in series [1] was less than 0.05 µM. The CC50 at 7 days in series [2] was more than 30 µM.

As for `Cc1cc(NC(=O)c2c(C)c(C(=O)C(=O)NC3CCN(C)C(=O)C3)n(C)c2C)ccc1F` (stereo not drawn) [Example 609, N-(4-fluoro-3-methylphenyl)-1,2,4-trimethyl-5-(2-((1-methyl-2-oxopiperidin-4-yl)amino)-2-oxoacetyl)-1H-pyrrole-3-carboxamide], in series [1], the EC50 was less than 0.05 µM. Moreover, in series [2], the CC50 at 7 days is more than 30 µM.

For the molecule `Cc1cc(NC(=O)c2c(C)c(C(=O)C(=O)NC3CC(=O)NC(=O)C3)n(C)c2C)ccc1F` [Example 610, 5-(2-((2,6-dioxopiperidin-4-yl)amino)-2-oxoacetyl)-N-(4-fluoro-3-methylphenyl)-1,2,4-trimethyl-1H-pyrrole-3-carboxamide], the concentration for a half-maximal effect (EC50) in series [1] was less than 0.05 µM. The same molecule yielded a 50% cytotoxic concentration (CC50) at 7 days in series [2] of more than 30 µM.

On to `Cc1cc(NC(=O)c2c(C)c(C(=O)C(=O)N[C@H]3CNC(=O)C3)n(C)c2C)ccc1F` [Example 611, (R)-N-(4-fluoro-3-methylphenyl)-1,2,4-trimethyl-5-(2-oxo-2-((5-oxopyrrolidin-3-yl)amino)acetyl)-1H-pyrrole-3-carboxamide], for which the EC50 in series [1] was less than 0.05 µM. Moreover, the CC50 at 7 days in series [2] is more than 30 µM.

Consider `CC(=O)N1CCC(C)(NC(=O)C(=O)c2c(C)c(C(=O)Nc3ccc(F)c(C)c3)c(C)n2C)CC1` [Example 612, 5-(2-((1-acetyl-4-methylpiperidin-4-yl)amino)-2-oxoacetyl)-N-(4-fluoro-3-methylphenyl)-1,2,4-trimethyl-1H-pyrrole-3-carboxamide], for which, in series [1], the EC50 is less than 0.05 µM. In series [2], this molecule registered a CC50 at 7 days of more than 30 µM.

As for `Cc1cc(NC(=O)c2c(C)c(C(=O)C(=O)NC3(C)CCN(S(C)(=O)=O)CC3)n(C)c2C)ccc1F` [Example 613, N-(4-fluoro-3-methylphenyl)-1,2,4-trimethyl-5-(2-((4-methyl-1-(methylsulfonyl)piperidin-4-yl)amino)-2-oxoacetyl)-1H-pyrrole-3-carboxamide], the EC50 in series [1] was less than 0.05 µM. For the same molecule, the half-maximal cytotoxic concentration (CC50) at 7 days in series [2] was more than 30 µM.

Turning to `CCNC(=O)N1CCC(C)(NC(=O)C(=O)c2c(C)c(C(=O)Nc3ccc(F)c(C)c3)c(C)n2C)CC1` [Example 614, N-ethyl-4-(2-(4-((4-fluoro-3-methylphenyl)carbamoyl)-1,3,5-trimethyl-1H-pyrrol-2-yl)-2-oxoacetamido)-4-methylpiperidine-1-carboxamide], the EC50 in series [1] is less than 0.05 µM. The molecule also had a cytotoxic concentration (CC50) at 7 days in series [2] of more than 30 µM.

Consider `Cc1c(C(=O)Nc2cccc(Cl)c2)c(C)n(C)c1C(=O)C(=O)N[C@]1(C)CC[C@@H](O)CC1` [Example 615, N-(3-chlorophenyl)-5-(2-(((1r,4r)-4-hydroxy-1-methylcyclohexyl)amino)-2-oxoacetyl)-1,2,4-trimethyl-1H-pyrrole-3-carboxamide], for which the EC50 in series [1] was less than 0.05 µM. Further, the CC50 at 7 days in series [2] was more than 30 µM.

Turning to `Cc1c(C(=O)Nc2ccc(F)c(F)c2)c(C)n(C)c1C(=O)C(=O)NC1(CO)CCCCC1` [Example 616, N-(3,4-difluorophenyl)-5-(2-((1-(hydroxymethyl)cyclohexyl)amino)-2-oxoacetyl)-1,2,4-trimethyl-1H-pyrrole-3-carboxamide], the EC50 in series [1] was less than 0.05 µM. In series [2], this molecule had a CC50 at 7 days of more than 30 µM.

For `Cc1cc(NC(=O)c2c(C)c(C(=O)C(=O)NC(C)(C)C(C)(C)O)n(C)c2C)ccc1F` [Example 617, N-(4-fluoro-3-methylphenyl)-5-(2-((3-hydroxy-2,3-dimethylbutan-2-yl)amino)-2-oxoacetyl)-1,2,4-trimethyl-1H-pyrrole-3-carboxamide], the EC50 in series [1] was less than 0.05 µM. The 50% cytotoxic concentration (CC50) at 7 days in series [2] was more than 30 µM.

Turning to `Cc1cc(NC(=O)c2c(C)c(C(=O)C(=O)N[C@H]3CCC[C@H](O)C3)n(C)c2C)ccc1F` [Example 618, N-(4-fluoro-3-methylphenyl)-5-(2-(((1S,3S)-3-hydroxycyclohexyl)amino)-2-oxoacetyl)-1,2,4-trimethyl-1H-pyrrole-3-carboxamide], the half-maximal effective concentration (EC50) in series [1] was less than 0.05 µM. Moreover, the CC50 at 7 days in series [2] was more than 30 µM.

As to `Cc1cc(NC(=O)c2c(C)c(C(=O)C(=O)N[C@]3(C)C[C@@H](O)C3)n(C)c2C)ccc1F` [Example 619], the EC50 in series [1] was less than 0.05 µM. The CC50 at 7 days in series [2] was more than 30 µM.

As for `Cc1cc(NC(=O)c2c(C)c(C(=O)C(=O)N[C@H]3C[C@H](O)C34CCOCC4)n(C)c2C)ccc1F` [Example 620, N-(4-fluoro-3-methylphenyl)-5-(2-(((1S,3S)-3-hydroxy-7-oxaspiro[3.5]nonan-1-yl)amino)-2-oxoacetyl)-1,2,4-trimethyl-1H-pyrrole-3-carboxamide], the half-maximal effective concentration (EC50) in series [1] was less than 0.05 µM. The molecule also registered a CC50 at 7 days in series [2] of more than 30 µM.

For the molecule `Cc1cc(NC(=O)c2c(C)c(C(=O)C(=O)N[C@H]3CNC(=O)C3(C)C)n(C)c2C)ccc1F` [Example 621, (R)-5-(2-((4,4-dimethyl-5-oxopyrrolidin-3-yl)amino)-2-oxoacetyl)-N-(4-fluoro-3-methylphenyl)-1,2,4-trimethyl-1H-pyrrole-3-carboxamide], in series [1], the EC50 is less than 0.05 µM. This molecule also had a 50% cytotoxic concentration (CC50) at 7 days in series [2] of more than 30 µM.

For the molecule `Cc1cc(NC(=O)c2c(C)c(C(=O)C(=O)NC3(C)CCS(=O)(=O)CC3)n(C)c2C)ccc1F` [Example 622, N-(4-fluoro-3-methylphenyl)-1,2,4-trimethyl-5-(2-((4-methyl-1,1-dioxidotetrahydro-2H-thiopyran-4-yl)amino)-2-oxoacetyl)-1H-pyrrole-3-carboxamide], the EC50 in series [1] is less than 0.05 µM. In series [2], this molecule showed a CC50 at 7 days of more than 30 µM.

`Cc1cc(NC(=O)c2c(C)c(C(=O)C(=O)NC3CCS(=O)(=O)C(C)(C)C3)n(C)c2C)ccc1F` (stereo not drawn) [Example 623, 5-(2-((2,2-dimethyl-1,1-dioxidotetrahydro-2H-thiopyran-4-yl)amino)-2-oxoacetyl)-N-(4-fluoro-3-methylphenyl)-1,2,4-trimethyl-1H-pyrrole-3-carboxamide]: the EC50 in series [1] was less than 0.05 µM. This molecule also yielded a CC50 at 7 days in series [2] of more than 30 µM.

On to `Cc1cc(NC(=O)c2c(C)c(C(=O)C(=O)NC3CC4CCC(C3)S4(=O)=O)n(C)c2C)ccc1F` (stereo not drawn) [Example 624, 5-(2-((8,8-dioxido-8-thiabicyclo[3.2.1]ctan-3-yl)amino)-2-oxoacetyl)-N-(4-fluoro-3-methylphenyl)-1,2,4-trimethyl-1H-pyrrole-3-carboxamide], for which the half-maximal effective concentration (EC50) in series [1] is less than 0.05 µM. Further, the CC50 at 7 days in series [2] is more than 30 µM.

In the case of `Cc1nc2c(s1)CCCC2NC(=O)C(=O)c1c(C)c(C(=O)Nc2ccc(F)c(C)c2)c(C)n1C` (stereo not drawn) [Example 625, N-(4-fluoro-3-methylphenyl)-1,2,4-trimethyl-5-(2-((2-methyl-4,5,6,7-tetrahydrobenzo[d]thiazol-4-yl)amino)-2-oxoacetyl)-1H-pyrrole-3-carboxamide], the EC50 in series [1] is less than 0.05 µM. The molecule also registered a 50% cytotoxic concentration (CC50) at 7 days in series [2] of more than 30 µM.

Regarding `Cc1cc(NC(=O)c2c(C)c(C(=O)C(=O)NC3CC(=O)Nc4ccccc43)n(C)c2C)ccc1F` (stereo not drawn) [Example 626, N-(4-fluoro-3-methylphenyl)-1,2,4-trimethyl-5-(2-oxo-2-((2-oxo-1,2,3,4-tetrahdyroquinolin-4-yl)amino)acetyl)-1H-pyrrole-3-carboxamide], in series [1], the EC50 is less than 0.05 µM. This molecule gave a CC50 at 7 days in series [2] of more than 30 µM.
